According to US20240116910A1, “Heterocycles as WIP1 Inhibitors” (PMV Pharmaceuticals, Inc., priority 2022, published 2024):

What was measured:
[1] = target: recombinant His-tag Wip1 full length protein (amino acids #1-605) (Homo sapiens (Human), UniProt O15297); experiment: Wip1 full length phosphatase enzyme FDP assay; assay type: biochemical; details: fluorescein diphosphate (FDP) substrate, RT 2 hours, fluorescence Ex485/Em535
Procedure: The Human Wip1 (2-420, aa 2-420) or Wip1 full length (aa 1-605) DNA sequence was codon optimized and synthesized by Genscript for insect cell expression. The open reading frame of Wip1(2-420) with a N-terminal-His6 affinity tag followed by a TEV cleavage site was subcloned sites into the pFastBac1 expression vector. The recombinant bacmid DNA was transfected in Sf9 insect cells for baculovirus production. After 72 hours infection, the Sf9 cells were harvested by centrifugation and resuspended in lysis buffer containing 50 mM Tris/HCl, pH 8.0, 500 mM NaCl, 20% glycerol, Benzonase 0.5% CHAPS and Roche cOmplete™ EDTA free protease inhibitors. Cells were disrupted with microfluidizer and the debris was removed by centrifugation at 185,000 g for 1 hour. The supernatant was subjected to HisTrap FF for affinity purification. Proteins were eluted with a linear gradient of 0-500 mM imidazole in HisTrap buffer containing 50 mM Tris/HCl, pH 8.0, 500 mM NaCl and 20% glycerol, 0.05% CHAPS. The eluted protein was dialyzed against dialysis buffer (20 mM MES, 100 mM NaCl, 20% glycerol, 0.5 mM TCEP, 0.05% CHAPS) followed purification via HiTrap SP HP column. The protein was eluted with a gradient of 100 mM-2 M NaCl in dialysis buffer. His6-[…] was finally concentrated and loaded onto a size-exclusion column (NiLoad 16/600 Superdex 200 pg, GE Healthcare) pre-equilibrated with 50 mM MOPS (pH 7.5), 200 mM NaCl, 20% glycerol, 1 mM TCEP, 0.05% CHAPS and 0.1 mM EGTA. The peak fractions containing purified Nis6-Wip1(2-420) were pooled and concentrated to 1.0 mg/mL and flash frozen at −80° C.
Wip1 Length and Wip1(2-420) Phosphatase Enzyme FDP Assays.
Test compounds (252 mM stock in DMSO) were diluted 3 folds in series in DMSO and 1.2 μl per well were added into 384-well polypropylene black plates (Nunc). Twelve μl per well of Assay Buffer (100 mM NaCl, 50 mM MOPS, pH 7.5, 0.8 mM CHAPS, 0.1 mM EGTA, 30 mM MgCl2, 0.3 mM TCEP, 0.2 mg/mL BSA) was added followed by […] per well of 50.4 nM recombinant His-tag Wip1 full length protein (amino acids #1-605) or recombinant His-tag Wip1(2-420) protein (amino acids #2-420) in Assay Buffer and the plate was incubated at RT (22° C.) for 5 min. Ten mM of fluorescein diphosphate (FDP) in DMSO was diluted to […] in Assay Buffer and […] per well was added to the plate and incubated at RT (22° C.) for 2 hours. […] per well of 64.1 mM EDTA in water were added to stop the enzyme reaction. The plate was centrifuged at 1,200 rpm (Eppendorf 5810R Plate centrifuge) for 1 minute and fluorescence intensity (Ex485/Em535) was measured on Perkin Elmer Victor Reader. EC50 values were calculated using either Prism (GraphPad) or ActivityBase software (IDBS), The IC50 results are provided in Table M.

[2] = target: recombinant His-tag Wip1(2-420) protein (amino acids #2-420) (Homo sapiens (Human), UniProt O15297); experiment: Wip1(2-420) phosphatase enzyme FDP assay; assay type: biochemical; details: fluorescein diphosphate (FDP) substrate, RT 2 hours, fluorescence Ex485/Em535; read-out: WIP1 (Truncated 2-420) FDP Assay: IC50
recombinant His-tag Wip1(2-420) protein (amino acids #2-420), sequence (O15297 2-420): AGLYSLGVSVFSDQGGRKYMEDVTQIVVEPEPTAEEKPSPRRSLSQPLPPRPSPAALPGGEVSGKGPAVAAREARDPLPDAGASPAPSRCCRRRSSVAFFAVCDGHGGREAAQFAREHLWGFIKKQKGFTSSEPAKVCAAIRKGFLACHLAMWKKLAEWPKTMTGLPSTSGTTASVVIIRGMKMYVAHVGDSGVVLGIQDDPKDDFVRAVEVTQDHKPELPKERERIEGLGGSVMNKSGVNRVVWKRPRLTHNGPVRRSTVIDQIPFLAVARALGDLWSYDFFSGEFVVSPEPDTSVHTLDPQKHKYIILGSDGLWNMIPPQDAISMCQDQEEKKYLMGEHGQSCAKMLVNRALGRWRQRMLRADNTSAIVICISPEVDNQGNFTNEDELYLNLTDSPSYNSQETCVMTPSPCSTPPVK

recombinant His-tag Wip1 full length protein (amino acids #1-605), sequence (O15297 whole entry, the tested form may be a part): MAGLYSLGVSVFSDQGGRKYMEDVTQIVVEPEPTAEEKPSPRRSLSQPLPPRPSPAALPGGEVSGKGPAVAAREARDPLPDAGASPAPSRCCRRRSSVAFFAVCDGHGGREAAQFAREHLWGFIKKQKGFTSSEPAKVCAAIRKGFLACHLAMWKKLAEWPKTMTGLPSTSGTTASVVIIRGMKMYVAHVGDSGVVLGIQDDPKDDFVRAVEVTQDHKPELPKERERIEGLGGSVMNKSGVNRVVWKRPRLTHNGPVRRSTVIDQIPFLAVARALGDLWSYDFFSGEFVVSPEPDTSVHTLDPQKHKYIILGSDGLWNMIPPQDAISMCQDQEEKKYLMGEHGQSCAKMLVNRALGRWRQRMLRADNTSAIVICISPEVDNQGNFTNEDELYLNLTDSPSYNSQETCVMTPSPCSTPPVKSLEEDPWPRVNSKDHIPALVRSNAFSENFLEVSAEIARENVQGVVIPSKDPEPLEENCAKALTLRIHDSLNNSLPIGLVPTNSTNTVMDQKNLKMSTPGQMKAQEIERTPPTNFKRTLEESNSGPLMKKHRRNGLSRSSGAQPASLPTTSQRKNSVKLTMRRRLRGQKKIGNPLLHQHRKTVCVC

Row | SMILES | IC50 [1] | IC50 [2]
1 | Cc1ncc(Cl)cc1N[C@@H](C)c1ccc(C(=O)N[C@@H](CC2CCCC2)C(=O)NC2CCC(F)(F)C2)s1 (stereo partly drawn) [Compound 26, (2S)-2-({5-[(1S)-1-[(5-chloro-2-methylpyridin-3-yl)amino]ethyl]thiophen-2-yl}formamido)-3-cyclopentyl-N-(3,3-difluorocyclopentyl)propanamide] | 9 nM | 7 nM
2 | Cc1ncc(Cl)cc1N[C@@H](C)c1ccc(C(=O)N[C@@H](CC2CCCC2)C(=O)NC2COC2)s1 [Compound 27, (2S)-2-({5-[(1S)-1-[(5-chloro-2-methylpyridin-3-yl)amino]ethyl]thiophen-2-yl}formamido)-3-cyclopentyl-N-(oxetan-3-yl)propanamide] | 10 nM | 6 nM
3 | Cc1ncc(Cl)cc1N[C@@H](C)c1ccc(C(=O)N[C@@H](CC2CCCC2)C(=O)N[C@H]2C[C@@H](F)C2)s1 [Compound 28, (2S)-2-({5-[(1S)-1-[(5-chloro-2-methylpyridin-3-yl)amino]ethyl]thiophen-2-yl}formamido)-3-cyclopentyl-N-[(1s,3s)-3-fluorocyclobutyl]propanamide] | 7 nM | 4 nM
4 | Cc1ncc(Cl)cc1N[C@@H](C)c1ccc(C(=O)N[C@@H](CC2CCCC2)C(=O)N[C@H]2C[C@H](F)C2)s1 [Compound 29, (2S)-2-({5-[(1S)-1-[(5-chloro-2-methylpyridin-3-yl)amino]ethyl]thiophen-2-yl}formamido)-3-cyclopentyl-N-[(1r,3r)-3-fluorocyclobutyl]propanamide] | 7 nM | 3 nM
5 | Cc1ncc(Cl)cc1N[C@@H](C)c1ccc(C(=O)N[C@@H](CC2CCCC2)C(=O)N[C@@H]2C[C@@H]2F)s1 [Compound 30, (2S)-2-({5-[(1S)-1-[(5-chloro-2-methylpyridin-3-yl)amino]ethyl]thiophen-2-yl}formamido)-3-cyclopentyl-N-[(1R,2S)-2-fluorocyclopropyl]propanamide] | 10 nM | 6 nM
6 | Cc1ncc(Cl)cc1N[C@@H](C)c1ccc(C(=O)N[C@@H](CC2CCCC2)C(=O)NC23CC(C#N)(C2)C3)s1 [Compound 31, (2S)-2-({5-[(1S)-1-[(5-chloro-2-methylpyridin-3-yl)amino]ethyl]thiophen-2-yl}formamido)-N-{3-cyanobicyclo[1.1.1]pentan-1-yl}-3-cyclopentylpropanamide] | 16 nM | 10 nM
7 | Cc1ncc(Cl)cc1N[C@@H](C)c1ccc(C(=O)N[C@@H](CC2CCCC2)C(=O)NC2CCN(C)CC2)s1 [Compound 32, (2S)-2-({5-[(1S)-1-[(5-chloro-2-methylpyridin-3-yl)amino]ethyl]thiophen-2-yl}formamido)-3-cyclopentyl-N-(1-methylpiperidin-4-yl)propanamide] | 73 nM | 48 nM
8 | Cc1ncc(Cl)cc1N[C@@H](C)c1ccc(C(=O)N[C@@H](CC2CCCC2)C(=O)NC2CC(C#N)C2)s1 (stereo partly drawn) [Compound 33, (2S)-2-({5-[(1S)-1-[(5-chloro-2-methylpyridin-3-yl)amino]ethyl]thiophen-2-yl}formamido)-N-(3-cyanocyclobutyl)-3-cyclopentylpropanamide] | 11 nM | 8 nM
9 | Cc1ncc(Cl)cc1N[C@@H](C)c1ccc(C(=O)N[C@@H](CC2CCCC2)C(=O)NC2(C#N)CC2)s1 [Compound 34, (2S)-2-({5-[(1S)-1-[(5-chloro-2-methylpyridin-3-yl)amino]ethyl]thiophen-2-yl}formamido)-N-(1-cyanocyclopropyl)-3-cyclopentylpropanamide] | 34 nM | 17 nM
10 | COc1ncc(Cl)cc1N[C@H](C)c1ccc(C(=O)N[C@@H](CC2CCCC2)C(=O)N[C@@H]2CC2(F)F)s1 [Compound 36, (2S)-2-({5-[(1R)-1-[(5-chloro-2-methoxypyridin-3-yl)amino]ethyl]thiophen-2-yl}formamido)-3-cyclopentyl-N-[(1R)-2,2-difluorocyclopropyl]propanamide] | 10 nM | 8 nM
